Data taken from paper PMC10945559, “Forgotten Natural Products: Semisynthetic Development of Blasticidin S As an Antibiotic Lead” (ACS Medicinal Chemistry Letters, 2024).
Converted amounts (≈) assume the structure as drawn. Like-named read-outs stand apart in the source and are kept apart here.

Legend:
in vitro = format: cell-based, human; settings: human; MRC-5 (lung fibroblast); 24 h; one biological replicate (n = 3); read-out: CC50 for human cells
Method: (§1) as a range from biological replicates. Inhibition curves were generated using Prism (GraphPad).
(§2) The IC50 values reported in Table 2 are the average of the two biological replicates ± standard […]
(§3) Cytotoxicity Assay Procedure
(§4) Human lung fibroblast cells, MRC -5 (CCL-171), were cultured at 37℃ with 5% CO2 and were plated at 5000 cells/well in a 96 -well plate. Compounds 1, 2, and 15-22 were initially prepared at concentrations of 5.12 mg/mL in a vehicle of 50% DMSO. Dilutions of the compounds (4 – 512 μg/mL) were then prepared in growth medium containing Dulbecco’s modified Eagle’s medium (DMEM) with high glucose, L -glutamine, and sodium pyruvate supplemented with 10% fetal bovine serum (FBS), 1% non -essential amino acids, and 0.1% gentamicin sulfate, and 25mM HEPES. The vehicle (50% DMSO) was also prepared via the sa me dilution series to serve as a control. Growth media was removed from the cells and replaced with the same volume of each compound dilution. Cells were incubated for 24 h , after which CellTiter 96® AQueous One Solution Reagent was added to each well as recommended by the manufacturer’s protocol (Promega CellTiter 96 AQueous One Solution Cell Proliferation Assay) and further incubated for 4 h. After incubation, absorbance was measured at 490 nm on an Infinite M plex multimode microplate reader with i -control Tecan software. Viability was calculated by subtracting media only absorbance values and normalizing to the vehicle control at each concentration. The presented data is one assay performed in triplicate that is representative of multiple trials. Data for the 256 and 512 μg/mL concentrations were removed from analysis due to vehicle toxicity […]
(§5) CC50 concentrations were determined via the ED50 Plus v1.0 software (https://archive.org/details/ed50v10_zip).
Figure S41. The effect of compounds on cell viability. The lines represent non -linear regression curves, and error bars represent means ± […]
SD (n=3). […]

[1] = tested on: Klebsiella pneumoniae ATCC 29665; assay: Broth microdilution antibacterial assay; format: cell-based; settings: for IC50 / MIC: Klebsiella pneumoniae, ATCC29665, K. pneumoniae; for IC50: average of two biological replicates ± S.D., read-out: IC50; for MIC: lowest concentration inhibiting >90% of growth, range from biological replicates, read-out: MIC; for Selectivity index (CC50/IC50): MRC-5 CC50 / K. pneumoniae IC50
Method: (§6) Antibacterial Assay Procedure
(§7) Broth Microdilution Assays
(§8) Media and solutions were autoclaved or sterile filtered prior to use and manipulations were carried out in a laminar flow hood. Antibacterial testing was performed in polypropylene 96 -well flat bottom plates. The minimal inhibitory concentration of blasticidin S ( 1) hydrochloride, P10 (2), and derivatives 15–22 were assessed against Staphylococcus aureus ΔNorA, S. aureus 8810, methicillin-resistant S. aureus (MRSA) ATCC 43300, Enterococcus faecalis ATCC 29212, vancomycin-resistant Enterococcus, Klebsiella pneumoniae ATCC 29665, Pseudomonas aeruginosa, and Acinetobacter baumannii ATCC 17978 using serial dilutions. Doxycycline (Gold Bio) as a positive control and the vehicle as a negative control. Stock solutions of each compound were prepared at 5.12 mg/mL in 50% DMSO/water and serially diluted in 50% DMSO/water to create master plates. From the master plates, 10 μL of each dilution was applied to test plates using a Bravo automated liquid transfer system (Agilent). Bacteria previously grown overnight (37 °C, 120 – 200 RPM), in LB broth were diluted to an OD600 of 0.0 5 in cation-adjusted Mueller-Hinton broth, grown to an OD600 of ~0.5, and diluted to an OD600 of 0.004 in cation-adjusted Mueller-Hinton broth. These diluted cultures were applied to the test plates (190 μL per test well) resulting in final concentrations of the test compounds of 256–2 μg/mL. Growth controls (wells with inoculated media but no vehicle or test compounds) were included to assess any potential toxicity from the vehicle. The plates were incubated at 37 °C for 16–18 h, except for VRE and E. faecalis, which were incubated at 37 °C for 24 h. Inhibition was determined by measuring the optical density at 600 nm (OD600) with a Cytation 3 plate reader (BioTek). The optical density measurements were normalized to the positive and negative controls and the vehicle and growth controls were compared and found to be indistinguishable, indicating no toxicity from the vehicle used. The MIC was the lowest concentration that inhibited >90% of growth. Two biological replicates were performed in duplicate. MIC values are reported […]
as §1, §2, §3, §4, §5

[2] = tested on: vancomycin-resistant Enterococcus (VRE); assay: Broth microdilution antibacterial assay; format: cell-based; settings: for MIC / IC50: Enterococcus, VRE; for IC50: average of two biological replicates ± S.D., read-out: IC50; for Selectivity index (CC50/IC50): MRC-5 CC50 / VRE IC50
Method: as §6, §7, §8, §1, §2, §3, §4, §5

Pseudomonas aeruginosa = assay: Broth microdilution antibacterial assay; format: cell-based; settings: for Selectivity index (CC50/IC50): MRC-5 CC50 / P. aeruginosa IC50; for MIC / IC50: Pseudomonas aeruginosa; for IC50: P. aeruginosa, average of two biological replicates ± S.D., read-out: IC50
Method: as §6, §7, §8, §1, §2, §3, §4, §5

[3] = tested on: Staphylococcus aureus ΔNorA; assay: Broth microdilution antibacterial assay; format: cell-based; settings: for Selectivity index (CC50/IC50): MRC-5 CC50 / S. aureus ΔNorA IC50; for IC50 / MIC: Staphylococcus aureus
Method: as §6, §7, §8, §1, §2, §3, §4, §5

[4] = tested on: Enterococcus faecalis ATCC 29212; assay: Broth microdilution antibacterial assay; format: cell-based; settings: for MIC / IC50: Enterococcus faecalis, ATCC29212; for IC50: average of two biological replicates ± S.D. (18: one biological replicate), read-out: IC50; for Selectivity index (CC50/IC50): MRC-5 CC50 / E. faecalis IC50
Method: as §6, §7, §8, §1, §2, §3, §4, §5

[5] = tested on: Acinetobacter baumannii ATCC 17978; assay: Broth microdilution antibacterial assay; format: cell-based; settings: for IC50 / MIC: Acinetobacter baumannii, ATCC17978; for IC50: average of two biological replicates ± S.D., read-out: IC50; for Selectivity index (CC50/IC50): MRC-5 CC50 / A. baumannii IC50
Method: as §6, §7, §8, §1, §2, §3, §4, §5

S. aureus 8810 = assay: Broth microdilution antibacterial assay; format: cell-based, Staphylococcus aureus; settings: for Selectivity index (CC50/IC50): MRC-5 CC50 / S. aureus IC50; for IC50 / MIC: Staphylococcus aureus, 8810; for IC50: average of two biological replicates ± S.D., read-out: IC50
Method: as §6, §7, §8, §1, §2, §3, §4, §5

[6] = tested on: methicillin-resistant S. aureus (MRSA) ATCC 43300; assay: Broth microdilution antibacterial assay; format: cell-based, Staphylococcus aureus; settings: for Selectivity index (CC50/IC50): MRC-5 CC50 / MRSA IC50; for IC50 / MIC: Staphylococcus aureus; for IC50: average of two biological replicates ± S.D., read-out: IC50
Method: as §6, §7, §8, §1, §2, §3, §4, §5

[7] = average MIC, Table S3, read-out: Average Activity against VRE
[8] = 24 h, lowest concentration inhibiting >90% of growth, range from biological replicates, read-out: MIC
[9] = E. faecalis, 24 h, lowest concentration inhibiting >90% of growth, range from biological replicates, read-out: MIC
[10] = average MIC, Table S3, read-out: Average Activity against E. faecalis
[11] = S. aureus, lowest concentration inhibiting >90% of growth, range from biological replicates, read-out: MIC
[12] = average MIC, Table S3, read-out: Average Activity against S. aureus
[13] = MRSA, lowest concentration inhibiting >90% of growth, range from biological replicates, read-out: MIC
[14] = average MIC, Table S3, read-out: Average Activity against MRSA

Compound | CC50 at 24 h (in vitro) [µg/mL] | IC50 [1] [µg/mL] | MIC [1] [µg/mL] | Selectivity index (CC50/IC50) [1] | MIC [2, 7] [µg/mL] | MIC [2, 8] [µg/mL] | IC50 [2] [µg/mL] | Selectivity index (CC50/IC50) [2] | Selectivity index (CC50/IC50) (Pseudomonas aeruginosa) | MIC (Pseudomonas aeruginosa) [µg/mL] | IC50 (Pseudomonas aeruginosa) [µg/mL] | Selectivity index (CC50/IC50) [3] | IC50 [3] [µg/mL] | MIC [3] [µg/mL] | MIC [4, 9] [µg/mL] | IC50 ([4]; E. faecalis) [µg/mL] | MIC [4, 10] [µg/mL] | Selectivity index (CC50/IC50) [4] | IC50 ([5]; A. baumannii) [µg/mL] | Selectivity index (CC50/IC50) [5] | further results
CNC(=O)[C@H]1O[C@@H](n2ccc(N)nc2=O)C=C[C@@H]1NC(=O)C[C@@H](N)CCN(C)C(=N)N [Compound 15, Methyl amide] | 52.8 (≈ 121 µM) | 26.4 ± 4.1 (≈ 60.6 µM) | 64 (≈ 147 µM) | 2.0 | 32 (≈ 73.5 µM) | 32 (≈ 73.5 µM) | 13.5 ± 3.6 (≈ 31 µM) | 3.9 | 2.6 | 64 to 128 (≈ 147 to 294 µM) | 20.2 ± 3.4 (≈ 46.4 µM) | 2.5 | 21.1 ± 0.4 (≈ 48.5 µM) | 128 (≈ 294 µM) | 16 to 32 (≈ 36.7 to 73.5 µM) | 13.2 ± 3.6 (≈ 30.3 µM) | 32 (≈ 73.5 µM) | 4.0 | 18.3 ± 5.3 (≈ 42 µM) | 2.9 | MIC ([5]; A. baumannii, lowest concentration inhibiting >90% of growth, range from biological replicates, read-out: MIC): 64 µg/mL (≈ 147 µM); Selectivity index (CC50/IC50) (S. aureus 8810): 8.9; IC50 (S. aureus 8810; S. aureus): 5.9 ± 1.2 µg/mL (≈ 13.5 µM); MIC (S. aureus 8810; [11]): 32 µg/mL (≈ 73.5 µM); MIC (S. aureus 8810; [12]): 32 µg/mL (≈ 73.5 µM); Selectivity index (CC50/IC50) [6]: 4.0; IC50 ([6]; MRSA): 13.3 ± 3.3 µg/mL (≈ 30.5 µM); MIC [6, 13]: 32 to 64 µg/mL (≈ 73.5 to 147 µM); MIC [6, 14]: 48 µg/mL (≈ 110 µM)
CCNC(=O)[C@H]1O[C@@H](n2ccc(N)nc2=O)C=C[C@@H]1NC(=O)C[C@@H](N)CCN(C)C(=N)N [Compound 16] | 137 (≈ 305 µM) | 60.1 ± 6.2 (≈ 134 µM) | 256 (≈ 570 µM) | 2.3 | 64 (≈ 142 µM) | 64 (≈ 142 µM) | 20.2 ± 8.1 (≈ 44.9 µM) | 6.8 | 6.3 | 64 to 128 (≈ 142 to 285 µM) | 21.8 ± 2.7 (≈ 48.5 µM) | 7.0 | 19.6 ± 1.8 (≈ 43.6 µM) | 128 (≈ 285 µM) | 16 to 32 (≈ 35.6 to 71.2 µM) | 9.6 ± 4 (≈ 21.4 µM) | 16 (≈ 35.6 µM) | 14 | 35.7 ± 11 (≈ 79.4 µM) | 3.8 | MIC [5]: 128 µg/mL (≈ 285 µM); Selectivity index (CC50/IC50) (S. aureus 8810): 26; IC50 (S. aureus 8810; S. aureus): 5.3 ± 1.5 µg/mL (≈ 11.8 µM); MIC (S. aureus 8810; [11]): 32 µg/mL (≈ 71.2 µM); MIC (S. aureus 8810; [12]): 32 µg/mL (≈ 71.2 µM); Selectivity index (CC50/IC50) [6]: 9.2; IC50 ([6]; MRSA): 14.9 ± 1.6 µg/mL (≈ 33.1 µM); MIC [6, 13]: 32 µg/mL (≈ 71.2 µM); MIC [6, 14]: 32 µg/mL (≈ 71.2 µM)
